From patent US20030096237A1, “Determination of the ability of patients to respond to a tumor treatment” (priority 2000, published 2003)

Legend:
Assay type in all cases: cell-based, human
[1] = tested on: CNCM I-2545 and CNCM I-2546; test: oligonucleotide array analysis, clustering of genes by mode of regulation; settings: 1st symbol CNCM I-2545, 2nd CNCM I-2546
Description: (§1) All these cell lines were cultured in RPMI medium supplemented with 10% FCS, glutamine (2 mM), sodium pyruvate (1 mM), non-essential amino acids and HEPES buffer (10 mM) (all from GIBCO Life Sciences, Paisley, UK). When confluent, the cells were passaged by trypsinization.
Cultured melanoma cells were harvested by scraping and total cellular RNA was extracted. 10 μg from each sample were used directly as templates for cDNA synthesis using a commercial kit (Roche Molecular Biochemicals, Rotkreuz, Switzerland). The T7 promoter sequence incorporated into the cDNA synthesis primer allowed template amplification and biotin labeling by in vitro transcription using a commercial kit (Affymetrix, Santa Clara, Calif.). After alkaline heat fragmentation […] was hybridised to the array (Affymetrix, Santa Clara, Calif.) and all subsequent steps were performed following standard procedures as supplied with the arrays. Raw data were collected with a confocal laser scanner (Hewlett Packard, Palo Alto, Calif.) using GeneChip software v3.1 (Affymetrix, Santa Clara, Calif.).
Raw data were normalized based on the total chip signal obtained upon hybridisation of ME15 cell line cDNA. This array was selected because: i) the 5′/3′ intensity ratio of control genes was smaller than 3; ii)>25% of the genes are called “present” by Genechip; iii) the image appearance is homogeneous with low background and no sign of mechanical chip damage.
The normalized average difference (nAD) between the signals of the perfect and of the mismatch probesets for each gene was used as the expression level of a given gene. At least one nAD value in a pairwise comparison of data has to exceed 50 to be included. Based on nAD, change factors related to IFN-α exposure were also calculated. Negative nAD values were set to 20 in order to avoid the calculation of artificially high modifications. In order to exclude artefacts, only genes with robust change factors, greater than 2-fold, were included in the analysis. […] Genes were clustered according to their mode of regulation.
Patterns of genes expressed in IFN-α sensitive and resistant melanoma cell lines were investigated upon 48 hour culture in the presence of IFN-α. CNCM I-2546 and CNCM I-2545 were studied in detail.
In Table 2 below, CNCM I-2546 and CNCM I-2545 cultured for 48 hours in the absence or in the presence of 100 U/ml IFN-α were used to assay cytokine modulated gene expression as matched with data obtained in fibrosarcoma cells. This analysis yielded six clusters of genes. […] Data are presented as average difference of signal intensity between match and mismatch probesets.
In Table 3 below, CNCM I-2546 and CNCM I-2545 cell lines cultured for 48 hours in the absence or in the presence of 100 U/ml IFN-α were used to identify novel cytokine induced genes whose expression was not found to be modulated in fibrosarcoma cells. Cluster 1 includes genes inducible in the CNCM I-2546 sensitive but not in the CNCM I-2545 resistant cell line. Cluster 2 comprises genes inducible in both lines. Data are presented as average difference of signal intensity between match and mismatch probesets.

[2] = tested on: CNCM I-2546; test: proliferation inhibition, 3H-Thymidine incorporation; settings: concentration inducing at least 50% inhibition of maximal proliferation
Description: (§2) Melanoma cell lines were screened for their sensitivity to proliferation inhibition and HLA class I induction. The study was done of six cell lines (CNCM I-2544, CNCM I-2545, CNCM I-2546, CNCM I-2547, CNCM I-2548 and CNCM I-2549).
as §1
(§3) A number of established melanoma cell lines were assayed for their sensitivity to IFN-α by testing the capacity of IFN-α to inhibit their proliferation and to increase their surface expression of HLA class I determinants.

[3] = tested on: CNCM I-2547; test: as above; settings: concentration inducing at least 50% inhibition of maximal proliferation
Description: as §2, §1, §3

[4] = tested on: CNCM I-2548; test: as above; settings: concentration inducing at least 50% inhibition of maximal proliferation
Description: as §2, §1, §3

[5] = tested on: CNCM I-2544; test: as above; settings: concentration inducing at least 50% inhibition of maximal proliferation
Description: as §2, §1, §3

IFN-α
˜d: cluster's characteristics M30818 interferon-induced cellular resistance mediator protein ([1]; Cluster 6) | cluster's characteristics X15949 interferon regulatory factor-2 (irf-2) ([1]; Cluster 6)
du: cluster's characteristics L40387 thyroid receptor interactor (trip14) ([1]; Cluster4) | cluster's characteristics M97935 transcription factor isgf-3 ([1]; Cluster4) | cluster's characteristics U01824 glutamate/aspartate transporter ([1]; Cluster4) | cluster's characteristics U53830 interferon regulatory factor 7a ([1]; Cluster4) | cluster's characteristics U72882 interferon-induced leucine zipper protein (ifp35) ([1]; Cluster4)
uu: cluster's characteristics M98343 amplaxin (ems1) ([1]; Cluster2) | cluster's characteristics D78132 rheb gene, ras-related gtp binding protein gene ([1]; Table 3 Cluster 2) | cluster's characteristics J04182 lysosomal membrane glycoprotein-1 (lamp1) ([1]; Table 3 Cluster 2) | cluster's characteristics J04444 cytochrome c-1 gene ([1]; Table 3 Cluster 2) | cluster's characteristics L07633 interferon-gamma ([1]; Table 3 Cluster 2) | cluster's characteristics L35249 vacuolar h + -atpase mr 56,000 subunit (ho57) ([1]; Table 3 Cluster 2) | cluster's characteristics M60784 ul snrnp-specific protein ([1]; Table 3 Cluster 2) | cluster's characteristics M65028 heterogeneous nuclear ribonucleoprotein a/b ([1]; Table 3 Cluster 2) | cluster's characteristics U70063 human acid ceramidase ([1]; Table 3 Cluster 2) | cluster's characteristics U78525 human eukaryotic translation initiation factor (eif3) ([1]; Table 3 Cluster 2) | cluster's characteristics X70848 protein phosphatase 1, catalytic subunit ([1]; Table 3 Cluster 2) | cluster's characteristics Z47055 farnesyl pyrophosphate synthetase like ([1]; Table 3 Cluster 2)
10 U/ml: proliferation inhibition (IC50) [3] | proliferation inhibition (IC50) [4]
˜u: cluster's characteristics D28137 bst-2 ([1]; Cluster 1) | cluster's characteristics D49824 hla-b null allele ([1]; Cluster 1) | cluster's characteristics HG658 major histocompatibility complex, class 1 c ([1]; Cluster 1) | cluster's characteristics HG2917 major histocompatibility complex, class i, e ([1]; Cluster 1) | cluster's characteristics J00105 beta-2 microglobulin gene ([1]; Cluster 1) | cluster's characteristics J04164 interferon-inducible protein 27-sep ([1]; Cluster 1) | cluster's characteristics M13755 interferon-induced 17-kda/15-kda protein ([1]; Cluster 1) | cluster's characteristics M19650 2′,3′-cyclic nucleotide 3prime-phosphodiesterase ([1]; Cluster 1) | cluster's characteristics M94880 mhc class i (hla-a*8001) ([1]; Cluster 1) | cluster's characteristics U22970 16-jun gene, interferon-inducible peptide (6-16) ([1]; Cluster 1) | cluster's characteristics U50648 interferon-inducible rna-dependent protein kinase (pkr) ([1]; Cluster 1) | cluster's characteristics U51127 interferon regulatory factor 5 ([1]; Cluster 1) | cluster's characteristics X02874 2-5A synthetase (1.6 kb) ([1]; Cluster 1) | cluster's characteristics X07730 prostate specific antigen ([1]; Cluster 1) | cluster's characteristics X57351 1-8d gene from interferon-inducible gene family ([1]; Cluster 1) | cluster's characteristics X57522 ring4 cdna ([1]; Cluster 1) | cluster's characteristics X67325 p27 ([1]; Cluster 1) | cluster's characteristics X96401 rox protein ([1]; Cluster 1) | cluster's characteristics Z56281 interferon regulatory factor 3 ([1]; Cluster 1) | cluster's characteristics D21235 hhr23a protein ([1]; Table 3 Cluster 1) | cluster's characteristics D28137 bst-2 ([1]; Table 3 Cluster 1) | cluster's characteristics D32050 alanyl-trna synthetase ([1]; Table 3 Cluster 1) | cluster's characteristics D50914 EST ([1]; Table 3 Cluster 1) | cluster's characteristics HG1612 macmarcks ([1]; Table 3 Cluster 1) | cluster's characteristics K03515 neuroleukin ([1]; Table 3 Cluster 1) | cluster's characteristics L13210 mac-2 binding protein ([1]; Table 3 Cluster 1) | cluster's characteristics L37043 casein kinase i epsilon ([1]; Table 3 Cluster 1) | cluster's characteristics M31013 nonmuscle myosin heavy chain (nmhc) ([1]; Table 3 Cluster 1) | cluster's characteristics M34338 spermidine synthase ([1]; Table 3 Cluster 1) | cluster's characteristics S81914 iex-1 = radiation-inducible immediate-early gene ([1]; Table 3 Cluster 1) | cluster's characteristics U09579 melanoma differentiation associated (mda-6) ([1]; Table 3 Cluster 1) | cluster's characteristics U18009 chromosome 17q21 clone lf113 ([1]; Table 3 Cluster 1) | cluster's characteristics U18018 ela enhancer binding protein (ela-f) ([1]; Table 3 Cluster 1) | cluster's characteristics U47025 fetal brain glycogen phosphorylase b ([1]; Table 3 Cluster 1) | cluster's characteristics U50327 protein kinase c substrate 80k-h gene (prkcsh) ([1]; Table 3 Cluster 1) | cluster's characteristics U61263 acetolactate synthase homolog ([1]; Table 3 Cluster 1) | cluster's characteristics U65579 mitochondrial nadh dehydrogenase-ubiquinone ([1]; Table 3 Cluster 1) | cluster's characteristics U65932 extracellular matrix protein 1 (ecm1) ([1]; Table 3 Cluster 1) | cluster's characteristics U69126 fuse binding protein 2 (fbp2) ([1]; Table 3 Cluster 1) | cluster's characteristics U72206 guanine nucleotide regulatory factor (lfp40) ([1]; Table 3 Cluster 1) | cluster's characteristics U91316 acyl-coa thioester hydrolase ([1]; Table 3 Cluster 1) | cluster's characteristics X04412 plasma gelsolin ([1]; Table 3 Cluster 1) | cluster's characteristics X76538 mpv17 ([1]; Table 3 Cluster 1) | cluster's characteristics X95325 dna binding protein a variant ([1]; Table 3 Cluster 1) | cluster's characteristics Y00264 amyloid a4 precursor ([1]; Table 3 Cluster 1) | cluster's characteristics Z26491 gene catechol o-methyltransferase ([1]; Table 3 Cluster 1)
u˜: cluster's characteristics J03909 gamma-interferon-inducible protein (ip-30) ([1]; Cluster3) | cluster's characteristics M92642 alpha-1 type xvi collagen (col16a1) ([1]; Cluster3) | cluster's characteristics U41515 dss1 ([1]; Cluster3)
100 U/ml: proliferation inhibition (IC50) [2] | proliferation inhibition (IC50) [5]
d˜: cluster's characteristics J00212 leukocyte interferon (ifn-alpha) ([1]; Cluster 5) | cluster's characteristics K01900 lymphocyte interferon alpha type 201 ([1]; Cluster 5) | cluster's characteristics L42243 ifnar2 gene (interferon receptor) ([1]; Cluster 5) | cluster's characteristics M79462 pml-1 ([1]; Cluster 5) | cluster's characteristics U52513 rig-g ([1]; Cluster 5) | cluster's characteristics X90846 mixed lineage kinase 2 ([1]; Cluster 5)
